Here are results for 25 compounds from patent US11236055B2 (Venenum Biodesign, LLC, priority 2016, dated 2022).

Assay [1] deals with T1, human TGR5 receptor (Homo sapiens, UniProt Q8TDU6).
T1 construct: host or cells: CHO-K1 (hTGR5-CHO cells)
T1 sequence (Q8TDU6 1-330): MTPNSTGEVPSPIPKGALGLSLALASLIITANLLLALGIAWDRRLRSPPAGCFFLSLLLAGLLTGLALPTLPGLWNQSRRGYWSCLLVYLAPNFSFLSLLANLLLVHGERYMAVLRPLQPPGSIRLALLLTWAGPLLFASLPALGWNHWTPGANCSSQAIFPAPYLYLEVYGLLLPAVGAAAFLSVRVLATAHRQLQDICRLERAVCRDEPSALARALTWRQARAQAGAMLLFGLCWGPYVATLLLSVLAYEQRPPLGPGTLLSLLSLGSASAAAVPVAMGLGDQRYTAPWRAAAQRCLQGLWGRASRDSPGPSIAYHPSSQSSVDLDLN
Nature of the assay: Human TGR5 cAMP production assay. The format is cell-based. The settings on record: human TGR5, luminescent cAMP assay; coded A-D; read-out: Human TGR5 Lum. cAMP Activity (EC50). Summed up: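 Intracellular cAMP read by luminescent enzyme-complementation (XS+) after overnight development, following 1 h room-temperature compound treatment of hTGR5-CHO-K1 cells in IBMX plus anti-cAMP antibody. Compounds tested as half-log dilution series; EC50 derived.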
For orientation: Cyclic AMP is a second messenger, typically raised through Gs and lowered through Gi signalling.

The target in assay [2] is T2, mouse TGR5 receptor (Mus musculus, UniProt Q80SS6).
T2 construct: expressed in transfected cells; host or cells: HEK293-EBNA (293 c18, ATCC CRL10852), Hygromycin B selection
T2 sequence (Q80SS6 1-329): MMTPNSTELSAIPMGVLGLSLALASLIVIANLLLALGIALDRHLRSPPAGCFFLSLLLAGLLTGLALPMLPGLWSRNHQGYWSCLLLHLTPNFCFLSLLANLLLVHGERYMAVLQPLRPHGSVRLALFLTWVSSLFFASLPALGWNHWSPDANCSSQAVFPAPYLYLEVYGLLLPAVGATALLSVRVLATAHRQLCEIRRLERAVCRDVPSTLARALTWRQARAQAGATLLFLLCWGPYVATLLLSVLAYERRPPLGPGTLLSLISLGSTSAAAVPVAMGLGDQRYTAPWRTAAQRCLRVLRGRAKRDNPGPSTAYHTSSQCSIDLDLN
The experiment in a line: Mouse TGR5 cAMP production assay (HTRF, Cisbio cAMP HiRange). The format is cell-based. As to conditions: HEK293-EBNA cells overexpressing mouse TGR5, HTRF cAMP HiRange; coded A-D. Summed up:
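cAMP read by HTRF competition after 1 h room-temperature compound exposure of mouse TGR5-overexpressing HEK293-EBNA cells. Cells were suspended in serum-free DMEM containing 500 μM IBMX; compounds ran as 12-point half-log dilutions in duplicate; EC50 derived.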

The structures appear in SMILES notation. pEC50: −log10 of the molar value. Bounds are passed on as bounds.

For orientation: pEC50 means the negative decadic logarithm of the EC50, by convention in mol/L. Take `Cc1nccc(-c2cccc(C(C)(C)NS(=O)(=O)c3cccc(C(F)(F)F)c3)c2)c1C` [Compound 5AC, N-(2-(3-(2,3-dimethylpyridin-4-yl)phenyl)propan-2-yl)-3-(trifluoromethyl)-benzenesulfonamide]: the negative logarithm of the EC50 (pEC50) in assay [1] and in assay [2] was 4.52 to 6.00 in each case.
Consider `COc1cnccc1-c1ccnc(CNS(=O)(=O)c2ccccc2C(F)(F)F)c1` [Compound 1BT], for which the pEC50 in assay [1] and in assay [2] was 4.52 to 6.00 in each case.
Consider `Cc1cnccc1-c1cccc(C(C)N(CCCNc2c(NCS(=O)(=O)O)c(=O)c2=O)S(=O)(=O)c2cccc(Cl)c2C)c1` (centres unmarked) [Compound 32AA, ((2-((3-(3-chloro-2-methyl-N-(1-(3-(3-methylpyridin-4-yl)phenyl)ethyl)phenylsulfonamido)propyl)amino)-3,4-dioxocyclobut-1-en-1-yl)amino)methanesulfonic acid], for which the figures for the negative-log EC50 (pEC50) in assay [1] and in assay [2] were above 7.00 and 6.00 to 7.00, respectively.
On the same counts, the results for `CCc1cnccc1-c1cccc([C@H](C)N(CCCCNS(=O)(=O)CCC(=O)O)S(=O)(=O)c2cccc(Cl)c2C)c1` [Compound 26AE, (S)-3-(N-(4-(3-chloro-N-(1-(3-(3-ethylpyridin-4-yl)phenyl)ethyl)-2-methylphenylsulfonamido)butyl)sulfamoyl)propanoic acid] are above 7.00 and above 7.00.
With `Cc1cnccc1-c1cccc([C@H](C)N(CCCC(=O)NCCS(=O)(=O)NCC(=O)O)S(=O)(=O)c2ccc(F)cc2C(F)(F)F)c1` [Compound 36, (S)-2-(4-(4-fluoro-N-(1-(3-(3-methylpyridin-4-yl)phenyl)ethyl)-2-(trifluoromethyl)phenylsulfonamido)butanamido)ethanesulfonamido acetic acid], the negative-log EC50 (pEC50) in assay [1] and in assay [2] was above 7.00 throughout.
Take `Cc1cnccc1-c1cccc([C@H](CCCC#N)N(CCCC(=O)O)S(=O)(=O)c2cccc(Cl)c2C)c1` [Compound 15AD, (S)-4-(3-chloro-N-(4-cyano-1-(3-(3-methylpyridin-4-yl)phenyl)butyl)-2-methylphenylsulfonamido) butanoic acid]: the pEC50 in assay [1] and in assay [2] was 6.00 to 7.00 each time.
On to `Cc1cnccc1-c1cccc(C2CN(C(=O)CS(=O)(=O)O)CCN2S(=O)(=O)c2cccc(Cl)c2Cl)c1` (centres unmarked) [Compound 49AC, 2-(4-((2,3-dichlorophenyl)sulfonyl)-3-(3-(3-methylpyridin-4-yl)phenyl)piperazin-1-yl)-2-oxoethanesulfonic acid], for which the pEC50 in assay [1] and in assay [2] was above 7.00 throughout.
On to `CC(C)(NS(=O)(=O)c1ccccc1C(F)(F)F)c1cccc(-c2ccc(=O)[nH]c2)c1` [Compound 3, N-(2-(3-(6-oxo-1,6-dihydropyridin-3-yl)phenyl)propan-2-yl)-2-(trifluoromethyl)benzenesulfonamide], for which the results for the negative-log EC50 (pEC50) in assay [1] and in assay [2] were 6.00 to 7.00 and 4.52 to 6.00, respectively.
Regarding `CC[C@H](NS(=O)(=O)c1ccccc1C(F)(F)F)c1cccc(-c2ccc3nccn3c2)c1` [Compound 5AX, (S)-N-(1-(3-(imidazo[1,2-a]pyridin-6-yl)phenyl)propyl)-2-(trifluoromethyl)benzenesulfonamide], the pEC50 in assay [1] and in assay [2] was 4.52 to 6.00 each time.
For `CCc1cnccc1-c1cccc(C(C)(C)NS(=O)(=O)c2ccccc2[N+](=O)[O-])c1` [Compound 5AO, N-(2-(3-(3-ethylpyridin-4-yl)phenyl)propan-2-yl)-2-nitrobenzenesulfonamide], the pEC50 in assay [1] and in assay [2] was above 7.00 throughout.
Turning to `Cc1cnccc1-c1cccc([C@H](C)N(CCCC(=O)N(CC(=O)O)CC(=O)O)S(=O)(=O)c2cccc(Cl)c2C)c1` [Compound 21AK, (S)-2,2′-((4-(3-chloro-2-methyl-N-(1-(3-(3-methylpyridin-4-yl)phenyl)ethyl)phenylsulfonamido)butanoyl)azanediyl)diacetic acid], the pEC50 in assay [1] and in assay [2] was 4.52 to 6.00 in each case.
As for `Cc1cnccc1-c1cccc([C@H](C)NS(=O)(=O)c2ccccc2N)c1` [Compound 10AA, (S)-2-amino-N-(1-(3-(3-methylpyridin-4-yl)phenyl)ethyl)benzenesulfonamide], the pEC50 was 6.00 to 7.00 in assay [1] and 4.52 to 6.00 in assay [2].
The matching figures for `CCOC(=O)CCN/C(=N/C#N)NCCCN(C(C)(C)c1cccc(-c2ccncc2C)c1)S(=O)(=O)c1cccc(Cl)c1C` [Compound 25A, Ethyl (E)-3-(3-(3-((3-chloro-2-methyl-N-(2-(3-(3-methylpyridin-4-yl)phenyl)propan-2-yl)phenyl)sulfonamido)propyl)-2-cyanoguanidino)propanoate]: above 7.00 and 6.00 to 7.00.
`Cc1cnccc1-c1cccc([C@H](C)N(CCC(=O)O)S(=O)(=O)c2cccc(Cl)c2C)c1` [Compound 16AK, (S)-3-(3-chloro-2-methyl-N-(1-(3-(3-methylpyridin-4-yl)phenyl)ethyl)phenylsulfonamido)propanoic acid]: the pEC50 in assay [1] and in assay [2] was 4.52 to 6.00 in each case.
`CCc1cnccc1-c1cccc(C2CN(CC(=O)O)CCN2S(=O)(=O)c2cccc(Cl)c2C)c1` (centres unmarked) [Compound 51, 2-(4-((3-Chloro-2-methylphenyl)sulfonyl)-3-(3-(3-ethylpyridin-4-yl)phenyl)piperazin-1-yl)acetic acid]: the pEC50 in assay [1] and in assay [2] was 6.00 to 7.00 throughout.
With `Cc1cnccc1-c1cccc(C(C)(C)N(CCCNc2ncc(C(=O)O)cn2)S(=O)(=O)c2cccc(Cl)c2C)c1` [Compound 27, 2-((3-((3-chloro-2-methyl-N-(2-(3-(3-methylpyridin-4-yl)phenyl)propan-2-yl)phenyl)sulfonamido)propyl)amino)pyrimidine-5-carboxylic acid], the negative logarithm of the EC50 (pEC50) in assay [1] is above 7.00; in assay [2], 6.00 to 7.00.
For the compound `Cc1c(Cl)cccc1S(=O)(=O)N(CCCC(=O)O)C(C)(C)c1cccc(-c2ccncc2CO)c1` [Compound 16AC, 4-(3-chloro-N-(2-(3-(3-(hydroxymethyl)pyridin-4-yl)-phenyl)propan-2-yl)-2-methylphenylsulfonamido)butanoic acid], the pEC50 in assay [1] was above 7.00; in assay [2], 6.00 to 7.00.
Turning to `Cc1cnccc1-c1cccc(C2CNCCN2S(=O)(=O)c2ccccc2C(F)(F)F)c1` (racemic) [Compound 44, (+/−) 2-(3-(3-methylpyridin-4-yl)phenyl)-1-((2-(trifluoromethyl)phenyl)sulfonyl)piperazine], the pEC50 in assay [1] and in assay [2] was 6.00 to 7.00 in each case.
Take `Cc1cnccc1-c1cccc([C@H](C)N(CCCC(=O)NCCS(N)(=O)=O)S(=O)(=O)c2cccc(Cl)c2C)c1` [Compound 20AJ, (S)-4-(3-chloro-2-methyl-N-(1-(3-(3-methylpyridin-4-yl)phenyl)ethyl)phenylsulfonamido)-N-(2-sulfamoylethyl)butanamide]: the pEC50 is above 7.00 in assay [1] and 6.00 to 7.00 in assay [2].
Take `Cc1cnccc1-c1cccc([C@H](CCCC#N)NS(=O)(=O)c2ccccc2C(F)(F)F)c1` [Compound 5BC, (S)-N-(4-cyano-1-(3-(3-methylpyridin-4-yl)phenyl)-butyl)-2-(trifluoromethyl)benzenesulfonamide]: the pEC50 in assay [1] and in assay [2] was above 7.00 each time.
For `Cc1cnccc1-c1cccc(C(C)(C)N(CCCC(=O)N[C@H](C)C(=O)O)S(=O)(=O)c2cccc(Cl)c2C)c1` [Compound 21AE, (R)-2-(4-(3-chloro-2-methyl-N-(2-(3-(3-methylpyridin-4-yl)phenyl)propan-2-yl)phenylsulfonamido)butanamido)propanoic acid], the pEC50 in assay [1] and in assay [2] was above 7.00 each time.
In the case of `Cc1cnccc1-c1cccc([C@H](C)NS(=O)(=O)c2cccc(Cl)c2C)c1` [Compound 7], the pEC50 in assay [1] and in assay [2] was above 7.00 throughout.
With `COc1cnccc1-c1cc(CNS(=O)(=O)c2cccc(C(F)(F)F)c2)ccn1` [Compound 1BS], the pEC50 in assay [1] and in assay [2] was 4.52 to 6.00 throughout.
With `Cc1cnccc1-c1cccc([C@H](C)N(CCCC(=O)NCCN)S(=O)(=O)c2ccccc2C(F)(F)F)c1` [Compound 20BX], the values for the negative logarithm of the EC50 (pEC50) in assay [1] and in assay [2] were above 7.00 and 6.00 to 7.00, respectively.
On the same counts, the results for `Cc1c(Cl)cccc1S(=O)(=O)N1CCN(C(=O)CS(=O)(=O)O)CC1c1cccc(-c2ccncc2)c1` (centres unmarked) [Compound 49AD, 2-(4-((3-chloro-2-methylphenyl)sulfonyl)-3-(3-(pyridin-4-yl)phenyl)piperazin-1-yl)-2-oxoethanesulfonic acid] are 6.00 to 7.00 and 6.00 to 7.00.
